Our source for the RP-LC retention time values is the METLIN SMRT retention time set (Domingo-Almenara et al. 2019).

A short description of the series: gradient 5% acetonitrile 3 min, to 50% in 2 min, to 85% in 15 min, held 3 min, 100 µL/min. Particulars: column: Zorbax Extend-C18 2.1 x 50 mm; eluents: water / acetonitrile, 0.1% formic acid. In outline:
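Values are retention times taken from adduct peaks that software picked and an analyst inspected. The pure standards were run as mixtures of ~100 molecules on HPLC linked to a quadrupole time-of-flight mass spectrometer, in positive and negative ionization mode. A Zorbax Extend-C18 column (2.1 × 50 mm, 1.8 μm) was used at 100 μL/min with water and acetonitrile, each including 0.1% formic acid.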
`CSc1cccc(NC(=O)N2CCN(C3=CC4=NCC(C)N4C=N3)CC2)c1` (stereo not drawn) displayed an RP-LC retention time of 650 s. Compound `CCN1CCN(c2ncc(N3CCC(C(=O)NCC(C)C)CC3)cn2)CC1` gave an RP-LC retention time of 582 s.

With `CCCc1ccc(S(=O)(=O)N2CCC3(CC2)NCCN=C3NCc2cccc(OC)c2)cc1`, the RP-LC retention time is 834 s.

`CCOC(=O)N1CCN(c2cc(-c3nc(-c4cccc(F)c4)no3)c3ccccc3n2)CC1` came in with an RP-LC retention time of 1420 s. The result for `C[C@@H]1OC(=O)[C@H]2C[C@H]3CCCC[C@@H]3[C@@H](/C=C/[C@H]3CCC[C@H](C)N3C)[C@@H]12` reads 745 s; that for `COC(=O)CCNC(=O)C1c2ccccc2C(=O)N(C2CCCCC2)C12CCCCC2` (stereo not drawn), 1010 s; that for `CCCNC(=O)c1cnn(-c2ccc(SCC)nn2)c1C`, 777 s. The figure for `Cc1nn(C)c(C)c1CNC(=O)C1CCN(c2nnc3ccccn23)CC1` is 515 s; for `N#Cc1cccc(NC(=O)Cn2cccc(-c3nc(-c4ccc(F)cc4)no3)c2=O)c1` it is 859 s. `CCN1CCN(CCNC(=O)C2CN(C(=O)c3cccs3)CC23CCCCC3)CC1` (stereo not drawn) showed an RP-LC retention time of 589 s.

`COc1ccc(-c2ccnc3nc(Cc4ccc(F)cc4)nn23)cc1` came in with an RP-LC retention time of 920 s. For `Cc1cc(C2CCCN2C(=O)Cc2c(F)cccc2Cl)on1` (stereo not drawn), the RP-LC retention time came to 848 s. In turn, `CC(C)Cn1c(=O)c(C(=O)NCc2ccccc2C(F)(F)F)nc2cccnc21` registered an RP-LC retention time of 1070 s.

Regarding `COC(=O)C1=CN(c2ccc(N(C)C)cc2)c2ccccc2S1(=O)=O`, the RP-LC retention time was 883 s. Take `CC1=C(c2ccc(C)cc2)S(=O)(=O)N=C1N1CCCN(C(=O)NCC(C)C)CC1`: the RP-LC retention time came to 822 s. `O=C(Cc1ccc(F)cc1)NC1CCN(c2cc(-c3ccc(Cl)cc3)[nH]n2)C1` (stereo not drawn): the RP-LC retention time stood at 789 s.

As to `CCCN(Cc1cccs1)C(=O)Nc1cc(OC)c(OC)c(OC)c1`, the RP-LC retention time was determined as 875 s. Consider `O=C(Nc1cccc(Cl)c1)N1CCC(n2c(C(F)(F)F)nc3cccnc32)CC1`, for which the RP-LC retention time stood at 961 s.

In the case of `O=C(NCC1CCCO1)C1CCN(c2ncccc2-c2nc(-c3cccc(Cl)c3)no2)CC1` (stereo not drawn), the RP-LC retention time was 990 s.

In turn, `Cc1cnc(Nc2ccc(OCCN3CCCC3)cc2)nc1Nc1cccc(S(=O)(=O)NC(C)(C)C)c1` displayed an RP-LC retention time of 619 s. Regarding `CCC(C)OC(=O)C1=C(C)NC(=O)NC1c1ccc(O)c(OC)c1` (stereo not drawn), the RP-LC retention time was found to be 677 s. The figure for `C[C@@H](C(=O)NCC1(CC(=O)O)CCCCC1)n1nnc2ccccc2c1=O` is 748 s. The result for `COc1ccc(N2C(=O)C3N=NN(c4ccc(F)c(Cl)c4)C3C2=O)cc1` (stereo not drawn) reads 1010 s. Take `COc1nn(C)cc1C(=O)N1CCc2nc(NC(=O)c3ccco3)sc2C1`: the RP-LC retention time came to 599 s. `c1cc2nnc(C3CC3)n2nc1N1CCCC1` returned an RP-LC retention time of 775 s. The figure for `CCN1CCCc2cc(C(=O)NC3CCCC3)sc21` is 961 s; for `O=c1c2nc(-c3ccc(F)cc3F)cn2ccn1-c1ccc(F)cc1` it is 862 s. Compound `CCc1nc(-n2cccc2)sc1C(=O)Nc1cccc(F)c1` registered an RP-LC retention time of 1170 s. `CCC1Oc2ccc(S(=O)(=O)N3CCC(C(=O)NC4CC4)CC3)cc2NC1=O` (stereo not drawn) displayed an RP-LC retention time of 688 s. Compound `O=C(Nc1cc(F)c2nc(N3CCOCC3)ccc2c1)c1cccs1` registered an RP-LC retention time of 787 s. Turning to `COc1ccc(Cl)cc1NC(=O)Cn1c(C)ncc(C(=O)NC2CCCC2)c1=O`, the RP-LC retention time amounted to 791 s. Turning to `COc1cccc(NC(=O)Cn2c(C(F)(F)F)nc3cc4c(cc32)OCCO4)c1`, the RP-LC retention time was 841 s.

In turn, `O=C(CF)N(O)c1ccc(/C=C/c2ccccc2)cc1` showed an RP-LC retention time of 959 s.
